Test results from US10640520B2, “Boronic acid derivatives” (MERCK PATENT GMBH, priority 2014, dated 2020).

What was measured:
Beta5 = Beta5 (Homo sapiens, UniProt P20618+P28074); assay: Determination of Beta5 activity (fluorescence intensity assay, Suc-LLVY-AMC); type: biochemical; settings: for IC50: purified human constitutive proteasome
Description: Determination of Beta5 Activity:
Measurement of Beta5 inhibition is performed in 384 well format based on fluorescence intensity assay.
(§1) Purified human constitutive proteasome (1.25 nM) and serial diluted compounds in DMSO (range of concentrations from 30 μM to 15 μM) or controls are incubated for 20 minutes or 120 minutes (long incubation) at 25° C. in assay buffer containing 50 mM Tris pH 7.4, 0.03% SDS, 1 mM EDTA and 1% DMSO. The reaction is initiated by the addition of the fluorogenic peptide substrate, Suc-LLVY-AMC (Bachem 1-1395), at a concentration of 40 μM. After 60 minutes of incubation at 37° C., fluorescence intensity is measured at λex=350 nm and λem=450 nm with a fluorescence reader (Perkin Elmer Envision reader or equivalent).
(§2) Unless indicated otherwise the results are obtained after incubation for 20 minutes.

LMP7 = LMP7 (Homo sapiens, UniProt P20618+P28062); assay: Determination of LMP7 activity (fluorescence intensity assay, Suc-LLVY-AMC); type: biochemical; settings: purified human immunoproteasome
Description: Determination of LMP7 Activity:
Measurement of LMP7 inhibition is performed in 384 well format based on fluorescence intensity assay.
as §1, with “immunoproteasome (0.25” for “constitutive proteasome (1.25”, “pM)” for “μM)”
as §2

Row | Structure (SMILES) | Selectivity LMP7 vs Beta5 (Beta5; incubation for 20 minutes) | IC50 (Beta5; incubation for 20 minutes) | IC50 (LMP7; incubation for 20 minutes) | Selectivity LMP7 vs Beta5 (Beta5; long incubation (120 min)) | IC50 (Beta5; long incubation (120 min)) | IC50 (LMP7; long incubation (120 min))
1 | O=C(CCN1CCCCC1=O)N[C@@H](Cc1cccc2ccccc12)B(O)O [Compound 11, [(1R)-2-(1-naphthyl)-1-[3-(2-oxo-1-piperidyl)propanoylamino]ethyl]-boronic acid] | +++ (30 ≤ Selectivity < 50) | 500 to 5000 nM | 50 to 500 nM |  |  | 
2 | CC1(C)CCC(=O)N1CCC(=O)N[C@@H](Cc1coc2ccccc12)B(O)O [Compound 27, [(1R)-2-(benzofuran-3-yl)-1-[3-(2,2-dimethyl-5-oxo-pyrrolidin-1-yl)propanoylamino]ethyl]boronic acid] | +++++ (Selectivity ≥ 70) | 500 to 5000 nM | < 50 nM |  |  | 
3 | O=C(CCN1C(=O)CCCC1=O)N[C@@H](Cc1ccccc1)B(O)O [Compound 5, [(1R)-1-[3-(2,6-dioxo-1-piperidyl)propanoylamino]-2-phenyl-ethyl]-boronic acid] | +++ (30 ≤ Selectivity < 50) | > 5000 nM | 500 to 5000 nM |  |  | 
4 | O=C(CCN1CCCC1=O)N[C@@H](Cc1ccc2ccccc2c1)B(O)O [Compound 6, [(1R)-2-(2-naphthyl)-1-[3-(2-oxopyrrolidin-1-yl)propanoylamino]-ethyl]boronic acid] | ++ (10 ≤ Selectivity < 30) | 50 to 500 nM | < 50 nM |  |  | 
5 | Cc1ccc(C[C@H](NC(=O)CC[C@@H]2NC(=O)NC2=O)B(O)O)cc1 [Compound 23, [(1R)-1-[3-[(4S)-2,5-dioxoimidazolidin-4-yl]propanoylamino]-2-(p-tolyl)ethyl]boronic acid] | ++ (10 ≤ Selectivity < 30) | 500 to 5000 nM | < 50 nM |  |  | 
6 | Cc1ccc(C[C@H](NC(=O)CN2CCCC2=O)B(O)O)cc1 [Compound 21, [(1R)-1-[[2-(2-oxopyrrolidin-1-yl)acetyl]amino]-2-(p-tolyl)ethyl]boronic acid] | ++ (10 ≤ Selectivity < 30) | 500 to 5000 nM | 50 to 500 nM |  |  | 
7 | Cc1ccc(C[C@H](NC(=O)CCN2CCN(c3ccccc3)C2=O)B(O)O)cc1 [Compound 15, [(1R)-1-[3-(2-oxo-3-phenyl-imidazolidin-1-yl)propanoylamino]-2-(p-tolyl)ethyl]boronic acid] | ++ (10 ≤ Selectivity < 30) | 50 to 500 nM | < 50 nM |  |  | 
8 | CCN1CCN(CCC(=O)N[C@@H](Cc2coc3ccccc23)B(O)O)C(=O)C1=O [Compound 34, [(1R)-2-(benzofuran-3-yl)-1-[3-(4-ethyl-2,3-dioxo-piperazin-1-yl)propanoylamino]ethyl]boronic acid] | ++ (10 ≤ Selectivity < 30) | 50 to 500 nM | < 50 nM |  |  | 
9 | O=C(N[C@@H](Cc1coc2ccccc12)B(O)O)C1CCCN1c1ccccc1 (stereo partly drawn) [Compound 37, [(1R)-2-(benzofuran-3-yl)-1-[(1-phenylpyrrolidine-2-carbonyl)amino]ethyl]boronic acid] | +++++ (Selectivity ≥ 70) | 500 to 5000 nM | < 50 nM |  |  | 
10 | Cc1ccc(C[C@H](NC(=O)CCN2CCCCC2=O)B(O)O)cc1C [Compound 25, [(1R)-2-(3,4-dimethylphenyl)-1-[3-(2-oxo-1-piperidyl)propanoylamino]-ethyl]boronic acid] | +++++ (Selectivity ≥ 70) | 500 to 5000 nM | < 50 nM |  |  | 
11 | Cc1ccc(C[C@H](NC(=O)C2CCC(=O)N2c2ccccc2)B(O)O)c(C)c1 (stereo partly drawn) [Compound 36, [(1R)-2-(2,4-dimethylphenyl)-1-[(5-oxo-1-phenyl-pyrrolidine-2-carbonyl)amino]-ethyl]boronic acid] | +++ (30 ≤ Selectivity < 50) | 500 to 5000 nM | 50 to 500 nM |  |  | 
12 | O=C(CCN1CCOCC1=O)N[C@@H](Cc1coc2ccccc12)B(O)O [Compound 28, [(1R)-2-(benzofuran-3-yl)-1-[3-(3-oxomorpholin-4-yl)propanoylamino]-ethyl]boronic acid] | ++ (10 ≤ Selectivity < 30) | 50 to 500 nM | < 50 nM |  |  | 
13 | CCc1cccc(C[C@H](NC(=O)CCCN2CCOC2=O)B(O)O)c1 [Compound 1, [(1R)-2-(3-ethylphenyl)-1-[4-(2-oxooxazolidin-3-yl)butanoylamino]-ethyl]boronic acid] | ++ (10 ≤ Selectivity < 30) | > 5000 nM | 50 to 500 nM |  |  | 
14 | Cc1ccc(C[C@H](NC(=O)CCN2CCCCC2=O)B(O)O)cc1 [Compound 9, [(1R)-1-[3-(2-oxo-1-piperidyl)propanoylamino]-2-(p-tolyl)ethyl]boronic acid] | ++ (10 ≤ Selectivity < 30) | 500 to 5000 nM | < 50 nM |  |  | 
15 | Cc1cccc2c(C[C@H](NC(=O)CCN3C(=O)CCC3(C)C)B(O)O)coc12 [Compound 38, [(1R)-1-[3-(2,2-dimethyl-5-oxo-pyrrolidin-1-yl)propanoylamino]-2-(7-methylbenzofuran-3-yl)ethyl]boronic acid] |  |  |  | +++++ (Selectivity ≥ 70) | 500 to 5000 nM | < 50 nM

Other lines, results leading:

Row | Selectivity LMP7 vs Beta5 (Beta5; incubation for 20 minutes) | IC50 (Beta5; incubation for 20 minutes) | IC50 (LMP7; incubation for 20 minutes) | Selectivity LMP7 vs Beta5 (Beta5; long incubation (120 min)) | IC50 (Beta5; long incubation (120 min)) | IC50 (LMP7; long incubation (120 min)) | Structure (SMILES)
16 | ++ (10 ≤ Selectivity < 30) | 500 to 5000 nM | 50 to 500 nM |  |  |  | COCc1ccc(C[C@H](NC(=O)CCN2CCCC2=O)B(O)O)cc1 [Compound 20, [(1R)-2-[4-(methoxymethyl)phenyl]-1-[3-(2-oxopyrrolidin-1-yl)propanoylamino]ethyl]boronic acid]
17 | ++ (10 ≤ Selectivity < 30) | 50 to 500 nM | < 50 nM |  |  |  | Cc1ccc(C[C@H](NC(=O)CCN2CCC(C)(C)C2=O)B(O)O)cc1 [Compound 17, [(1R)-1-[3-(3,3-dimethyl-2-oxo-pyrrolidin-1-yl)propanoylamino]-2-(p-tolyl)ethyl]boronic acid]
18 | ++++ (50 ≤ Selectivity < 70) | 50 to 500 nM | < 50 nM |  |  |  | O=C(CCN1CCCC1=O)N[C@@H](Cc1coc2ccccc12)B(O)O [Compound 19, [(1R)-2-(benzofuran-3-yl)-1-[3-(2-oxopyrrolidin-1-yl)propanoylamino]-ethyl]boronic acid]
19 | +++ (30 ≤ Selectivity < 50) | 500 to 5000 nM | 50 to 500 nM |  |  |  | Cc1ccc(C[C@H](NC(=O)CCN2C(=O)CCC2(C)C)B(O)O)cc1 [Compound 18, [(1R)-1-[3-(2,2-dimethyl-5-oxo-pyrrolidin-1-yl)propanoylamino]-2-(p-tolyl)ethyl]boronic acid]
20 | +++ (30 ≤ Selectivity < 50) | 500 to 5000 nM | < 50 nM |  |  |  | Cc1ccc(C[C@H](NC(=O)CCN2CCCCS2(=O)=O)B(O)O)c(C)c1 [Compound 32, [(1R)-2-(2,4-dimethylphenyl)-1-[3-(1,1-dioxothiazinan-2-yl)propanoylamino]ethyl]boronic acid]
21 | +++ (30 ≤ Selectivity < 50) | 50 to 500 nM | < 50 nM |  |  |  | O=C(CCN1CCCCS1(=O)=O)N[C@@H](Cc1coc2ccccc12)B(O)O [Compound 26, [(1R)-2-(benzofuran-3-yl)-1-[3-(1,1-dioxothiazinan-2-yl)propanoylamino]ethyl]boronic acid]
22 | ++ (10 ≤ Selectivity < 30) | < 50 nM | < 50 nM |  |  |  | O=C(CCN1CC(c2ccccc2)OC1=O)N[C@@H](Cc1coc2ccccc12)B(O)O (stereo partly drawn) [Compound 29, [(1R)-2-(benzofuran-3-yl)-1-[3-(2-oxo-5-phenyl-oxazolidin-3-yl)propanoylamino]ethyl]boronic acid]
